Experimental findings from ChEMBL document CHEMBL1201862, “PubChem BioAssay data set” (2004) are described below.

What all share (assay): NCI-60 cell line screen, 48 h
Experiment [1] relates to EKVX.
In experiment [2] the test system is NCI/ADR-RES.
Experiment [3] has as its system SNB-19.
Experiment [4] relates to DU-145.
For experiment [5], the system named is MCF7.
The subject of experiment [6] is IGROV-1.
The subject of experiment [7] is SK-MEL-2.
In experiment [8] the test system is HCT-116.
The test system of experiment [9] is SN12C.
Experiment [10] has as its system HT-29.
Experiment [11] concerns Malme-3M.
For experiment [12], the system named is 786-0.
Experiment [13] relates to OVCAR-8.
Experiment [14] relates to TK-10.
In experiment [15] the test system is PC-3.
The subject of experiment [16] is T47D.
The subject of experiment [17] is UO-31.
For experiment [18], the system named is HL-60.

Structures are written as SMILES.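 Assay format: 96-well plates, 48-hour exposure. The concentration for 50% growth inhibition is given as GI50.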 Calls of active or inactive are those of the source. Cut-off read from the data, not from the text of the source: active = GI50 up to about 1.1 µM and inactive = higher. A value given as a limit tells only on which side of the number the result lay.

For `C[Si](C)(c1ccc(C(=O)O)cc1)c1ccc(C(=O)O)cc1`, the GI50 in experiment [1], in [2], in experiment [3], in experiment [4], in experiment [5] and in experiment [6] was > 100 µM (inactive) throughout. The GI50 in experiment [7], in [8], in [9], in experiment [10], in [11] and in experiment [12] was > 100 µM (inactive) in each case. Also, the GI50 in experiment [13], in [14], in experiment [15] and in [16] was > 100 µM (inactive) each time.

Consider `CC(=O)Oc1ccc2c(c1)O/C(=C\c1ccc(N(C)C)cc1)C2=O`, for which the GI50 in experiment [1] was > 100 µM (inactive); in experiment [2] it was 29.6 µM (inactive); in experiment [17] it was 26.3 µM (inactive); in experiment [3], 53.8 µM (inactive); in experiment [4], > 100 µM (inactive); in [5] it was > 100 µM (inactive). Further, the GI50 in [6] is > 100 µM (inactive); in experiment [8] it was 85.5 µM (inactive); in experiment [9] it was 62.7 µM (inactive); in experiment [10] it was > 100 µM (inactive); in experiment [18], 32.7 µM (inactive); in experiment [12] it was > 100 µM (inactive). Also, the GI50 in experiment [13], in [14], in experiment [15] and in [16] was > 100 µM (inactive) in each case.

As for `CN1C2CCC1CC(CCOC(c1ccc(F)cc1)c1ccc(F)cc1)C2` (stereo unspecified), the GI50 in experiment [1] is 13.9 µM (inactive); in [2], 17.5 µM (inactive); in experiment [17], 14.6 µM (inactive); in experiment [3], 20.7 µM (inactive); in experiment [4], 15.7 µM (inactive); in experiment [6] it was 17.3 µM (inactive). Further, the GI50 in experiment [7] was 16.9 µM (inactive); in experiment [8], 12.7 µM (inactive); in [9], 18.4 µM (inactive); in experiment [10], 6.73 µM (inactive); in [11], 15.1 µM (inactive); in experiment [18] it was 16.1 µM (inactive). The GI50 is 15.9 µM (inactive) in experiment [12]; 17.3 µM (inactive) in experiment [13]; 15.3 µM (inactive) in [14]; 15.5 µM (inactive) in experiment [15]; 18.5 µM (inactive) in experiment [16].

For the molecule `O=C1N=C2SC(=S)N=C(S)N2NC12c1ccccc1-c1ccccc12`, the GI50 in experiment [1] was 3.67 µM (inactive); in experiment [2], 3.61 µM (inactive); in experiment [17] it was 6.28 µM (inactive); in [4], > 10 µM (inactive); in experiment [5], 6.81 µM (inactive); in experiment [6] it was > 10 µM (inactive). The GI50 in experiment [9] was > 10 µM (inactive); in experiment [10], 7.01 µM (inactive); in experiment [11] it was > 10 µM (inactive); in [18], > 10 µM (inactive); in experiment [12], > 10 µM (inactive); in experiment [13], > 10 µM (inactive). Also, the GI50 in experiment [14] was > 10 µM (inactive); in experiment [16], 1.38 µM (inactive).

In the case of `COC1=C2C[C@](OC)(C#CC=CC#CC2O)CC1(C)C` (stereo partly specified), the GI50 in experiment [1] is > 100 µM (inactive); in experiment [2], > 100 µM (inactive); in experiment [17] it was 28.6 µM (inactive); in [3], > 100 µM (inactive); in experiment [4] it was > 100 µM (inactive); in [5], > 100 µM (inactive). The GI50 in experiment [6] was 18.2 µM (inactive); in [8], > 100 µM (inactive); in [9] it was > 100 µM (inactive); in [10] it was > 100 µM (inactive); in experiment [11], > 100 µM (inactive); in experiment [18] it was 55 µM (inactive). For the same molecule, the GI50 in [12], in experiment [13], in experiment [14], in experiment [15] and in experiment [16] was > 100 µM (inactive) in each case.

Turning to `COC(=O)[C@@H]1CN(C(=O)c2ccccc2)C(=O)N1C(=O)OCc1ccccc1`, the GI50 in experiment [1], in experiment [2], in experiment [17], in experiment [3], in [4] and in [5] was > 100 µM (inactive) throughout. The GI50 in experiment [6], in experiment [7], in [8], in experiment [9], in [10] and in [11] was > 100 µM (inactive) throughout. Also, the GI50 in experiment [18], in experiment [12], in experiment [13], in [14] and in experiment [16] was > 100 µM (inactive) in each case.

Take `CC(C)=CCNc1nc(Cl)nc2[nH]cnc12`: the GI50 is 15.7 µM (inactive) in [1]; 35.7 µM (inactive) in experiment [2]; 37.4 µM (inactive) in experiment [17]; 29 µM (inactive) in experiment [3]; > 100 µM (inactive) in [4]; 29.6 µM (inactive) in experiment [5]. Moreover, the GI50 in experiment [6] was > 100 µM (inactive); in [8], 24.7 µM (inactive); in experiment [9], 57.7 µM (inactive); in experiment [10] it was > 100 µM (inactive); in [11], 86.9 µM (inactive); in experiment [18], > 100 µM (inactive). Moreover, the GI50 in experiment [12] is 49.4 µM (inactive); in [13], 46.5 µM (inactive); in experiment [14], 71.6 µM (inactive); in [15] it was > 100 µM (inactive); in [16] it was 92 µM (inactive).

For the molecule `COc1ccc(C(=O)/C=C/c2ccc(OCC(=N)N)cc2)cc1`, the GI50 in [1] is 16.4 µM (inactive); in experiment [2] it was 28.2 µM (inactive); in [17], 19.8 µM (inactive); in [3] it was 15.8 µM (inactive); in [4], 12.8 µM (inactive); in [5], 13.2 µM (inactive). The GI50 is 18.2 µM (inactive) in [6]; 4.55 µM (inactive) in experiment [8]; 13.5 µM (inactive) in experiment [9]; 15.3 µM (inactive) in experiment [10]; 17.9 µM (inactive) in experiment [11]; 16.3 µM (inactive) in experiment [12]. In addition, the GI50 is 14.3 µM (inactive) in [13], 21.4 µM (inactive) in experiment [14], 14.7 µM (inactive) in experiment [15] and 10.7 µM (inactive) in [16].

As to `N#CCN1CCCCCc2ccccc21`, the GI50 in [1], in experiment [2], in [17], in experiment [3], in experiment [4] and in experiment [5] was > 100 µM (inactive) each time. The GI50 in experiment [6], in experiment [8], in experiment [9], in [10], in experiment [11] and in experiment [18] was > 100 µM (inactive) each time. Further, the GI50 in experiment [12], in experiment [13], in experiment [14] and in experiment [16] was > 100 µM (inactive) throughout.

For `CC(C)(O)/C=C\P(=O)(O)O`, the GI50 in experiment [1], in [2], in experiment [3], in experiment [4], in experiment [5] and in experiment [6] was > 100 µM (inactive) each time. For the same molecule, the GI50 in experiment [7], in experiment [8], in experiment [9], in experiment [10], in experiment [11] and in experiment [12] was > 100 µM (inactive) throughout. Further, the GI50 in [13] is > 100 µM (inactive); in experiment [14], > 100 µM (inactive); in [15], > 100 µM (inactive); in experiment [16], 7.1 µM (inactive).

Consider `C[C@@H]1C(=O)O[C@@H]2C[C@@]1(C)[C@@H]1C(=O)C3(O)OC14C2(C)OC(=O)[C@@]4(O)CCC1C3C(O)C=C2CC=CC(=O)[C@@]21C` (stereo partly specified), for which the GI50 in experiment [1] was 40.6 µM (inactive); in [2] it was > 100 µM (inactive); in experiment [17], 22.5 µM (inactive); in experiment [3], 3.24 µM (inactive); in experiment [4], 30.3 µM (inactive); in experiment [5], 36.3 µM (inactive). Further, the GI50 in [6] was 42.3 µM (inactive); in experiment [7], 17.9 µM (inactive); in [8], 20.7 µM (inactive); in experiment [9], 41.2 µM (inactive); in experiment [10] it was 34 µM (inactive); in experiment [18], 13.4 µM (inactive). The GI50 in experiment [12] was 33.1 µM (inactive); in experiment [13], 31.3 µM (inactive); in [14], 36.9 µM (inactive); in experiment [15], 36 µM (inactive); in experiment [16] it was 31.3 µM (inactive).

For the molecule `C[C@H]1O[C@@H](O[C@H]2[C@@H](O)C[C@H](O[C@H]3[C@@H](O)C[C@H](O[C@H]4CC[C@@]5(C)[C@H](CC[C@@H]6[C@@H]5CC[C@]5(C)[C@@H](C7=CC(=O)OC7)[C@@H](O)C[C@]65O)C4)O[C@@H]3C)O[C@@H]2C)C[C@H](O)[C@@H]1O` [GITOXIN], the GI50 in experiment [1] was 0.164 µM (active); in experiment [2], 0.197 µM (active); in experiment [17], 0.219 µM (active); in experiment [3], 0.714 µM (active); in experiment [4], 0.0822 µM (active); in experiment [6] it was 0.416 µM (active). The GI50 in experiment [7] is 0.543 µM (active); in experiment [8] it was 0.127 µM (active); in [9], 0.164 µM (active); in experiment [10], 0.177 µM (active); in experiment [11], 0.206 µM (active); in experiment [18] it was 0.116 µM (active). Besides, the GI50 was 0.151 µM (active) in experiment [12]; 0.226 µM (active) in [13]; 0.254 µM (active) in experiment [14]; 0.259 µM (active) in [15]; 0.42 µM (active) in experiment [16].
